Measurements as given in publication PMC5115179 (Pharmacology Research & Perspectives, 2016).

What was measured:
[1] = test system: rat; set-up: method as in Hicks et al., 2004; settings: 50 mg/kg i.v., ref Hicks et al., 2004; cited from earlier work
[2] = test system: gamma‐butyrolactone‐treated mice; assay: GBL‐mediated response protection by NCS‐382 in the absence and presence of diclofenac; type: in vivo; settings: mouse
Method: Wild‐type C57/B6 mice (mixed gender, n = 7) were bred in‐house, weaned at day of life (DOL) 21, and randomized to a treatment sequence (Fig. 2). […] Thirty minutes later, mice were given an i.p. injection of GBL (100 mg/kg diluted in PBS) and were placed into a clean round arena (~10 inches in diameter) and were allowed access to food and water. Mice were recorded on a camera operated by Serena acquisition software (recorded for 10 min). At 5 and 10 min following GBL, righting reflex was assessed. These procedures were repeated daily with ~24 h in between sessions. Data file names were coded such that treatments were blinded at the time of video data analysis. During video data analysis, the time of which noticeable loss of motor function or coordination (e.g., “loss of motor function”) was observed, and the time taken for the subject to enter a dissociative state and fall into an unsupported prone position (e.g., “time to loss of motion”) was monitored. Righting reflex was evaluated by placing the mouse in a supine position and the time to return to all four paws was recorded based on the timestamp of the playback video. Data for each treatment group were expressed as the mean and standard deviation, and statistical significance was evaluated using one‐way ANOVA and Tukey post hoc t test (P < 0.05).
Wild‐type C57/B6 mice (mixed gender, n = 7) were bred in‐house, weaned at day of life (DOL) 21, and randomized to a treatment sequence. […] Thirty minutes later, mice were given an i.p. injection of GBL (100 mg/kg in PBS) and were placed into a clean round arena (~10 inches in diameter) and were allowed access to food and water. Mice were recorded on a camera operated by Sirena acquisition software (recorded for 10 min). At 5 and 10 min following GBL, righting reflex was assessed. These procedures were repeated daily with ~24 h in between sessions. Data files names were coded such that video analysis was blinded at the time of data recording.

[3] = test system: rat; set-up: method as in Snead III, 1996; settings: 100-500 mg/kg i.p., ref Snead III, 1996; cited from earlier work
[4] = test system: aldh5a1^−/− mice; set-up: method as in Gupta et al. 2002; settings: ref Gupta et al. 2002; cited from earlier work
[5] = Metabolite formation kinetics in HLMs; type: in vitro ADME; settings: human liver microsomes
Method: (§1) Microsomal incubations were conducted as described above with modifications. […] The K m was calculated using nonlinear regression in Graphpad Prism. Due to the lack of authentic standard and relatively short rate of parent disappearance, the maximum formation velocity (V max) could not be determined for either metabolites.

[6] = test system: rat; set-up: method as in Poggioli et al., 1999; settings: rat, 25, 100, 200 mg/kg p.o.; ref Poggioli et al., 1999; cited from earlier work
[7] = test system: pigeon; set-up: method as in Koek et al., 2006; settings: pigeon, 54, 178, 320, 560 mg/kg, route ns; ref Koek et al., 2006; cited from earlier work
[8] = Excretion of NCS‐382 in urine and feces (metabolic cages); type: in vivo; settings: mouse, pooled urine of 3 mice
Method: To ensure sufficient volumes of urine could be collected in each of the 2 h time intervals (baseline, 0–2, 2–4, 4–6, 6–8 h), three mice were dosed simultaneously and their urine and feces pooled for analysis. The total dose in μg administered to the three animals was therefore used to calculate the percent of the dose excreted in the urine pooled from all three mice. Animals were allowed ad libitum access to food and water of which the intake of each was monitored.
Samples (3 μL) were injected onto a Kinetex PFP (50 × 2.1 mm, 1.7 μm particle size) UPLC column and eluted with a binary gradient consisting of water with 0.1% formic acid (mobile phase A) and methanol with 0.1% formic acid (mobile phase B). […] Eluent was directed to waste for the initial 0.4 min then to an ABI Sciex 6500 Qtrap tandem mass spectrometer. […] Where necessary, samples were diluted in blank matrices for analysis.
Pharmacokinetic outcomes were obtained via standard noncompartmental methods using Kinetica (version 5.1, Thermo Fisher Scientific, Waltham, MA). The maximum concentration (C max) was obtained directly from the concentration–time profiles. Area under the concentration–time curve (AUC) from time zero to the last collected time point was determined using the trapezoidal method with linear up/log down interpolation.

[9] = test system: rat; set-up: method as in Schmidt-Mutter et al., 1998; settings: 300 mg/kg i.p., ref Schmidt-Mutter et al., 1998; cited from earlier work
[10] = target: GHB receptor; set-up: method as in Molnár et al. 2006; settings: ref Molnár et al. 2006; cited from earlier work
[11] = Metabolite formation kinetics in MLMs; type: in vitro ADME; settings: mouse liver microsomes
Method: as §1

[12] = test system: rat; set-up: method as in Baker et al., 2008; settings: rat, 25, 50, 100 mg/kg i.g.; ref Baker et al., 2008; cited from earlier work
[13] = NCS‐382–diclofenac interaction study (inhibition of NCS‐382 glucuronidation); settings: mouse
Method: In this study, mice (n = 3–4 per group) were assigned (balanced for weight and gender) to one of three treatments and collected at one of three time points (0.5, 1, or 2 h).

[14] = test system: rat; set-up: method as in Colombo et al., 1999; settings: 400 mg/kg i.p., ref Colombo et al., 1999; cited from earlier work
[15] = test system: rat; set-up: method as in Lamb et al., 2003; settings: rat, 3.2, 32 mg/kg i.p; ref Lamb et al., 2003; cited from earlier work
[16] = Metabolite identification in samples from mouse pharmacokinetic studies (candidate metabolites); type: in vivo; settings: LC‐MS/MS of NCS‐382‐treated mouse samples
Method: Metabolite identification was conducted on samples obtained from pharmacokinetic studies in mice. Analytical conditions and equipment were similar to those described above with some modifications. Samples (10 μL) were injected onto a Kinetex PFP (50 × 2.1 mm, 1.7 μm particle size) UPLC column maintained at 40°C. […] MS experiments consisted of enhanced MS (EMS), neutral loss (NL), precursor ion scan (Prec), and MRM each followed by MS/MS experiments when necessary. Constant conditions such as a source temperature (450°C), signal threshold (500 cps), and CAD gas (“high”) were used, while additional parameters (e.g., collision energy, collision energy spread, mass range, etc.) were obtained by the software during data‐dependent scans. Studies were performed using sera and brain samples, with time points pooled for individual matrices and a reference control derived by pooling the sera or brain homogenates from three vehicle‐treated animals.
Using the Light Sight software, a comprehensive list of prospective phase I and phase II metabolites were targeted (Table S2). […] A number of structurally feasible metabolites (including oxidation) were initially identified, but could not be confirmed by their mass fragmentation patterns. […] Both peaks were detected in urine samples (Fig. S1B), but not in feces.

[17] = 120 min, read-out: Km for dehydrogenation
[18] = saturation not obtained, read-out: Km for glucuronidation

O=C(O)/C=C1\CCCc2ccccc2C1O (stereo not shown) [NCS‐382, 6,7,8,9‐tetrahydro‐5‐hydroxy‐5H‐benzo‐cyclohept‐6‐ylideneacetic acid]
increase in heart rate induced by GHB [1]: reversed the ↑ in heart rate
pressor response induced by GHB [1]: not the pressor response
time to loss of motor function compared to vehicle control ([2]; NCS‐382 300 mg/kg with diclofenac 25 mg/kg i.p. 30 min before GBL 100 mg/kg i.p.): significantly improved
time to loss of motor function compared to vehicle control ([2]; given alone i.p. (NCS‐382 300 mg/kg or diclofenac 25 mg/kg) 30 min before GBL 100 mg/kg i.p.): trended toward increasing
two chemically induced models for absence seizures [3]: NCS-382 was protective against two chemically induced models for absence seizures.
lifespan of SSADHD mice [4]: significant lifespan extension
Km [5, 17]: 12.7 ± 4.8 µM
Km [5, 18]: > 100 µM
gastric emptying [6]: dose dependently, ↓ gastric emptying
prokinetic effect of GHB [6]: antagonized the prokinetic effect of GHB
effects of diazepam [7]: GHB, its precursors 1,4-BD and GBL, and NCS-382 did not attenuate the effects of diazepam.
total dose administered recovered unchanged in the urine over 8 h ([8]; 100 mg/kg): 0.1%
total dose administered recovered unchanged in the urine over 8 h ([8]; 300 mg/kg): 1.1%
total dose administered recovered unchanged in the urine over 8 h ([8]; 500 mg/kg): 3.3%
reversal of the anxiolytic effect of GHB [9]: The anxiolytic effect of GHB were reversed by the benzodiazepine receptor antagonist, flumazenil, but not by naloxone or NCS-382.
Ki [10]: 1200 nM
Km [11, 17]: 29.5 ± 10 µM
Km [11, 18]: > 100 µM
GHB's (300 mg/kg) discriminative stimulus effects [12]: GHB's (300 mg/kg) discriminative stimulus effects were obliterated by the GABAB receptor antagonist, CGP-35348 and slightly attenuated by NCS 382.
AUC(0-t) ([13]; both, in vivo, 300 mg/kg): 411 µM·h
Brain AUC0–2 h [90% CI] ([13]; treatment NCS‐382 300 mg/kg + Diclofenac 25 mg/kg): 182 [164–200] ^a nmol/g/tissue*h
Brain AUC0–2 h [90% CI] ([13]; treatment NCS‐382 300 mg/kg alone): 128 [115–141] nmol/g/tissue*h
blood ethanol levels [14]: NCS-382 reduces blood ethanol levels, likely due to a lessened absorption of ethanol from the gastrointestinal tract.
motor effects of GHB [15]: NCS-382 did not antagonize the motor effects of GHB, consistent with the belief that many of the behavioral actions of exogenously administered GHB result from GHB's actions at sites other than the GHB receptor.
Peak Area (%) [16]: 25%
